Results: patent US6997270B2, “Compounds and method for generating a highly efficient membrane in water-based drilling fluids” (Halliburton Energy Services, Inc., priority 2000, dated 2006)

Experiments:
[1] = Membrane efficiency screening test (membrane efficiency screening equipment); details: about 25° Celsius, about 15 MPa
Procedure: Two types of test equipment are used for the present invention: (i) membrane efficiency screening equipment for tests conducted at 25° Celsius and the test solution at 15 MPa, and (ii) autonomous triaxial test equipment for tests conducted at temperatures above 25° Celsius and/or the test solution at 35 MPa.
The membrane efficiency screening equipment has six test cells. Six different test solutions can be tested under simulated downhole pressure conditions, at any one time with independent, individual test cell control. Referring to FIG. 4, the parts of the cell are shown as follows: Cell-1; Base-2; Bleed Port-3; Confining Fluid Port-4; Downstream Pressure Line (pore fluid)-5; Upstream Pressure Line (test solution)-6; Knurl-7; Top Platen-8; Membrane-9; Sample-10; Bottom Platen-11; O-Rings-12; Collar-13; and Seal-14.
The cell of FIG. 4 has a confining pressure and pore pressure capacity of 35 MPa and 20 MPa respectively. The confining pressure is applied with a Haskel pump and controlled with a high precision stepping motor pump control system. […] Two separate high-pressure gas cylinders provide the upstream and downstream pressures which are controlled by high pressure regulators.
The test procedures for the membrane efficiency screening equipment are as follows: • (a) bleed top (downstream) and bottom (upstream) platens 8 and 11 with simulated pore fluid; • (b) place a sample 10 (25 mm diameter and approximately 10 mm long) between the platens 8 and 11; • (c) jacket the sample in a 1.0 mm thick Viton membrane 9; • (d) mount O-rings 12 over the jacket on the platens 8 and 11; • (e) mount the cell 1; • (f) fill the cell 1 with water; • (g) apply a confining pressure of 20 MPa (via port 4); • (h) apply a back (upstream) pressure of 10 MPa (via line 6) and check for flow across the (upstream) platen 8; • (i) open the downstream pressure valve (on line 5) if the (downstream) pressure is less than 10 MPa; • (j) when the downstream pressure has stabilised at 10 MPa (pressure change <50 kPa/hour, i.e. sample has consolidated), increase the upstream pressure to 15 MPa; • (k) when the downstream pressure has increased by at least 2 MPa (pressure transmitted from the upstream end), reduce the upstream pressure to 10 MPa; • (l) when the downstream pressure has stabilised at 10 MPa (pressure change <50 kPa/hour, i.e. sample has reconsolidated), displace the pore fluid at the upstream end with the test solution at 15 MPa (water activity of test solution is not reduced with electrolyte, i.e. essentially the same as that of the shale); • (m) when the downstream pressure has increased and stabilised (pressure transmitted from the upstream end), displace the test solution (at the upstream end) with the lower water activity solution; • (n) adjust the lower water activity solution circulation rate; and • (o) terminate the test when a maximum decrease in the downstream pressure is observed.
The membrane efficiency obtained from a test is defined as percentage ratio of the maximum differential pressure developed across the shale sample (upstream pressure minus minimum downstream pressure during chemical potential stage) and the theoretical osmotic pressure of the test solution-shale system. The theoretical osmotic pressure is given by: [formula] where Π=osmotic pressure (kPa) • R=gas constant (0.083 liter atm mol^−1 ° K^−1) • T=absolute temperature (° K) • V=partial molar volume of water (0.018 litre mol^−1) • Asol=water activity of lower water activity solution • Ash=water activity of shale

[2] = Phase transition to a hexagonal phase (aqueous concentration); format: physicochemical; details: about pH 10; about 25° Celsius
[3] = cited from earlier work
[4] = Membrane efficiency test in autonomous triaxial test equipment (temperatures above 25° Celsius and/or 35 MPa)
Procedure: Based on the aforementioned fundamental understanding of the membrane generation mechanisms for acid-base species, we have discovered a range of novel compounds for use in water-based drilling fluids that have the capacity to generate a highly efficient membrane on the borehole wall in argillaceous formations. […] Two types of test equipment are used for the present invention: (i) membrane efficiency screening equipment for tests conducted at 25° Celsius and the test solution at 15 MPa, and (ii) autonomous triaxial test equipment for tests conducted at temperatures above 25° Celsius and/or the test solution at 35 MPa.
Referring to FIG. 5, the parts of the cell are shown as follows: Top Plate-20; Bottom Platen-21; Load Cell-22; Top Cap-23; Downstream Pore Pressure Port-24; Removable Cell Body-25; Radial Gauges-26; LVDT-27; Upstream Pore Pressure Port-28; Clamping Ring-29; Upstream Flush Pressure Port-30; O-Ring-31; Membrane-32; Temperature Sensor-33; and Sample 34.
The cell of FIG. 5 has a confining pressure and pore pressure capacity of 70 MPa.
The instruments used to measure the behaviour of the test sample 34 are as follows: • (a) two diametrically-opposed LVDTs (Linear Variable Differential Transformers) 27 mounted between the sample end platens to measure axial deformation of the sample 34; • (b) four cantilever (orthogonal) radial gauges 26 mounted at mid-height of the sample 34 to measure radial deformation; • (c) two thermal sensors 33 to measure sample 34 top and bottom temperatures; • (d) a load cell 22 located underneath the bottom platen 21 to measure axial deviatoric load (not used); • (e) a pressure transducer to measure cell (confining) pressure; and • (f) two pressure transducers to measure pore pressure at both ends of the sample 34.
A computer-controlled system was used to control the cell and pore pressures with stepping motor pumps, and to perform data acquisition. During the test, the cell temperature was maintained constant by placing the autonomous triaxial cell in a temperature-controlled oven. […]

Compound: Oc1ccc2ccccc2c1 [2-naphthol]
- Change of membrane generation capacity with pH ([1]; for a given concentration): did not change significantly between the pH range

Compound: CCCCCCCC/C=C\CCCCCCCC(=O)[O-].C[N+](C)(C)C [Tetramethylammonium oleate]
- Membrane efficiency ([1]; about 5 to about 10 wt %, pH about 9, water activity reduced with 33.4 wt % tetramethylammonium chloride): up to 44%
- Concentration at which phase transition to a hexagonal phase occurs [2]: about 20 wt %

Compound: C[Si](O)(O)O [methyl silanetriol]
- pKa [3]: about 11

Compound: [Cl-].[K+] [potassium chloride, reference compound]
- Membrane efficiency ([1]; stock solution about 26.3 wt % potassium chloride, pH not adjusted): about 9%

Compound: C[N+](C)(C)C.[Cl-] [tetramethylammonium chloride, reference compound]
- Membrane efficiency ([1]; stock solution about 33.4 wt % tetramethylammonium chloride, pH not adjusted): about 8%

Compound: CCCCCCCCCCCC(=O)[O-].C[N+](C)(C)C [tetramethylammonium laurate]
- Membrane efficiency ([1]; about 5 to about 10 wt %, pH about 7.6 to about 11.5, water activity reduced with 33.4 wt % tetramethylammonium chloride): up to 57%
- Change of membrane generation capacity with pH ([1]; for a given concentration): increased significantly when pH was increased from about 7.6 to about 11.5
- Concentration at which phase transition to a hexagonal phase occurs [2]: about 20 wt %

Compound: Potassium methyl siliconate
- Membrane efficiency ([1]; about 5 to about 10 wt %, pH about 11.95 to about 12.8, 12, 15 or 20 wt % sodium chloride): up to 80%
- Change of membrane generation capacity with pH ([1]; for a given concentration): increased greatly when pH was reduced from about 12.8 to about 11.95
- Effect of temperature on membrane generation capacity ([4]; temperature up to about 80° Celsius): not significantly affected by temperature of up to about 80° Celsius
- Effect of test solution pressure on membrane generation capacity ([4]; test solutions at about 35 MPa): only slightly reduced
- Membrane efficiency ([4]; test solutions at about 35 MPa, about 40° Celsius to about 80° Celsius): approximately 54%

Compound: silicic acid
- Change of membrane generation capacity with pH ([1]; about 1 wt % and about 2.5 wt %): essentially the same between pH of about 11.15 and about 12.5
- Change of membrane generation capacity with pH ([1]; about 5 wt % to about 10 wt %): increases with increase in pH
- Membrane efficiency ([1]; all concentrations evaluated (about 1 to about 10 wt %), pH about 11.15 to about 12.5, 12 wt % sodium chloride): > 70%

Compound: sodium methyl siliconate
- Membrane efficiency ([1]; about 5 to about 10 wt %, pH about 11.9 to about 12.6, 12 wt % sodium chloride or 16 wt % potassium chloride): up to 86%
- Change of membrane generation capacity with pH ([1]; for a given concentration): increased greatly when pH was reduced from about 12.6 to about 11.9
